According to ChEMBL document CHEMBL1201862, “PubChem BioAssay data set” (2004):
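In this assay, cells in 96-well plates receive the compound at five concentrations for 48 hours. Endpoints are linearly interpolated between the surrounding concentrations. Here, GI50 denotes the concentration required for 50% inhibition of growth.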 Activity calls are given as the source filed them. Rule as the data show it: active = GI50 up to about 1.1 µM and inactive = higher.

How the values were obtained:
Assay in all cases: NCI anticancer screen, dose series, 48 h
HCC 2998 = test system: HCC 2998
UACC-62 = test system: UACC-62
KM12 = test system: KM12
SK-MEL-28 = test system: SK-MEL-28
HOP-62 = test system: HOP-62
SF-268 = test system: SF-268
LXFL 529 = test system: LXFL 529
OVCAR-3 = test system: OVCAR-3
HOP-18 = test system: HOP-18
OVCAR-5 = test system: OVCAR-5
HL-60 = test system: HL-60
A549 = test system: A549
A498 = test system: A498
SNB-75 = test system: SNB-75
KM-20L2 = test system: KM-20L2

Measured: GI50

Cc1cccc(NC(=O)CSc2nnc(Cc3ccccc3)o2)c1
inactive: HCC 2998 > 100 µM | UACC-62 > 100 µM | KM12 > 100 µM | SK-MEL-28 > 100 µM | HOP-62 > 100 µM | SF-268 > 100 µM | LXFL 529 > 100 µM | OVCAR-3 > 100 µM | HOP-18 > 100 µM | OVCAR-5 > 100 µM | HL-60 > 100 µM | A549 > 100 µM | A498 > 100 µM | SNB-75 63.8 µM | KM-20L2 > 100 µM

Cc1ccc(C2=Nc3ccccc3[S+]([O-])C(c3ccc4c(c3)OCO4)C2)cc1 (configuration not stated)
inactive: HCC 2998 > 10 µM | UACC-62 18.3 µM | KM12 18.2 µM | SK-MEL-28 24.5 µM | HOP-62 39.4 µM | SF-268 19.5 µM | LXFL 529 > 10 µM | OVCAR-3 27.7 µM | HOP-18 > 100 µM | HL-60 19.1 µM | A549 28.6 µM | A498 18.2 µM | SNB-75 88.3 µM | KM-20L2 17.4 µM

O=C(CSc1nnc(Cc2ccccc2)o1)Nc1ccc(Cl)cc1Cl
inactive: HCC 2998 > 100 µM | UACC-62 > 100 µM | KM12 > 100 µM | SK-MEL-28 > 100 µM | HOP-62 > 100 µM | SF-268 > 100 µM | LXFL 529 > 100 µM | OVCAR-3 > 100 µM | HOP-18 > 100 µM | OVCAR-5 > 100 µM | HL-60 > 100 µM | A549 > 100 µM | A498 > 100 µM | SNB-75 > 100 µM | KM-20L2 > 100 µM

CN(C)c1n/c(=N/c2ccc3ccccc3c2)ss1
inactive: HCC 2998 33.7 µM | UACC-62 21.5 µM | KM12 15.6 µM | SK-MEL-28 34.8 µM | HOP-62 41.8 µM | SF-268 33.7 µM | LXFL 529 9.1 µM | OVCAR-3 12.2 µM | HOP-18 25.3 µM | HL-60 16.1 µM | A549 12.2 µM | A498 30.6 µM | SNB-75 20.8 µM | KM-20L2 29.6 µM

CCN(CC)c1cccc2c1C1(O)CCC3(CC21)OCCCCO3 (configuration not stated)
inactive: HCC 2998 > 100 µM | KM12 57.8 µM | SK-MEL-28 > 100 µM | HOP-62 > 100 µM | SF-268 > 100 µM | LXFL 529 > 100 µM | OVCAR-3 84.9 µM | HOP-18 > 100 µM | OVCAR-5 > 100 µM | HL-60 > 100 µM | A549 49 µM | A498 56.2 µM | SNB-75 36.5 µM | KM-20L2 68.4 µM
